Source: patent publication US20220363662A1, “COMPOUNDS AS LXR AGONISTS” (Integral Biosciences Privated Limited, priority 2021, published 2022)

Assays:
[1] = molecular target: T1, LXR alpha (Homo sapiens, UniProt Q13133); assay: LXR alpha agonist assay (Lanthascreen TR-FRET); assay type: biochemical; conditions: LXR alpha-LBD 2.5 nM, read-out: LXR-α EC50
T1 construct: 5 μL of 4×LXR alpha-LBD was added to each well (final concentration 2.5 nM); purchased Thermofisher PV4655
T1 sequence (Q13133 209-447 limits assumed): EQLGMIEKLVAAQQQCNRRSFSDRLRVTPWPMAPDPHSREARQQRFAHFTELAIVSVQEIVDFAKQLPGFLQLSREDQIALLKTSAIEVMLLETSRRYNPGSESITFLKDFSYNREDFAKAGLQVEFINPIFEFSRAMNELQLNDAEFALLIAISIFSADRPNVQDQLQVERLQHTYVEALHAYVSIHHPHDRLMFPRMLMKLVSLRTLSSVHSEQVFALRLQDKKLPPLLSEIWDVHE
Method: EC50 values of compounds against LXR alpha were determined at Integral BioSciences (India) using Lanthascreen TR-FRET (Thermofisher, Cat #PV4655). Assay was performed in a 20 μL final volume in a Black 384-well plate (Corning, Cat #4511). Dose response curve for the compounds were prepared in duplicates with starting concentration at 30 μM and a three-fold titration was performed. The reaction buffer consisted of TR-FRET Coregulator Buffer H. To the compound dilution, 5 μL of 4×LXR alpha-LBD was added to each well (final concentration 2.5 nM). An equal volume (5 μL) containing 4×Fl-D22/Tb-anti GST antibody (final concentration 250 nM/10 nM) was added to initiate the enzyme reaction and the reaction was incubated for 60 min at 22° C. after which the plates were read using BioTek Plate reader for TR-FRET every hour up to 4 hours.
Analysis was done using the standard curve by non-linear regression, variable slope inhibitor curve fits (Graph-Pad Prism) and EC50's of compounds were determined wherever possible.

[2] = system: A549; assay: Cell viability assay (resazurin) in A549; assay type: cell-based; conditions: Homo sapiens, 96 hr exposure
Method: (§1) HepG2 (ATCC® HB-8065™), hepatocellular carcinoma, A549 (ATCC® CCL-185™), lung epithelial carcinoma, MCF7 (ATCC® HTB-22™), mammary gland epithelial carcinoma, MDA-MB-231 (ATCC® HTB-26™), TNBC, MiaPaCa-2 (ATCC® CRL-1420™) & Panc-1 (ATCC® CRL-1469™), pancreatic epithelial carcinoma, HCT116 (ATCC® CCL-247™), colon epithelial carcinoma and U87MG (ATCC® HTB-14™), brain epithelial carcinoma cell lines respectively were seeded in the respective medium (DMEM, Cat #10569044 with 10% FBS, Cat #16000044; Gibco for HepG2, A549, MCF7, MDA-MB-231, MiaPaCa-2, Panc-1, HCT116 and MEM, Cat #11095080 with 10% FBS for U87MG). Cells were allowed to grow at 37° C. for 24 hr in 5% CO2 (culture conditions) in a Nuaire incubator (humidified). Serially diluted compounds (100 μl) were added to the culture plate 24 hr later and the cultures were further incubated in culture conditions for 96 hr. Experiment was terminated at the completion of 96 hr exposure to the drug by replacing the medium with 100 μl of 1 mM of resazurin (R7017; Sigma) prepared in culture medium and the plates were further incubated in culture conditions for 4 hr. Fluorescence was then measured using a multimodal plate reader (Biotek Synergy Neo) at an excitation wavelength of 535 nm and emission wavelength of 590 nm to obtain relative fluorescence units. Data analysis was done by subtracting the background fluorescence (only medium blank) value from each reading and then normalizing with the vehicle control (DMSO treated cells) to obtain percent survival/proliferation. Percent survival at different doses was used to calculate IC50 by fitting the curve to the “four-parameter variable slope logistic model” using Prism Graph Pad.

[3] = system: HepG2; assay: Cell viability assay (resazurin) in HepG2; assay type: cell-based; conditions: Homo sapiens, 96 hr exposure
Method: as §1

[4] = molecular target: T2, LXR beta (Homo sapiens, UniProt P55055); assay: LXR beta agonist assay (Lanthascreen TR-FRET); assay type: biochemical; conditions: LXR beta-LBD 5 nM, read-out: LXR-β EC50
T2 construct: 5 μL of 4×LXR beta-LBD was added to each well (final concentration 5 nM); purchased Thermofisher PV4658
T2 sequence (P55055 222-460 limits assumed): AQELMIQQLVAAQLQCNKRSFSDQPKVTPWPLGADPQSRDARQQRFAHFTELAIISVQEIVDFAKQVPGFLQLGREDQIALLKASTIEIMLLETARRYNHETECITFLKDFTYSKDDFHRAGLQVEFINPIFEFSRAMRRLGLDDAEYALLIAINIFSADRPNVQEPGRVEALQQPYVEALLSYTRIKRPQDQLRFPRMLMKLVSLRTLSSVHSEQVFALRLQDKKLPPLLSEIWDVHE
Procedure, shortened: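 TR-FRET coactivator recruitment: 5 nM LXR beta-LBD with 100 nM Fl-D22 peptide and 10 nM Tb-anti-GST antibody (final) in Coregulator Buffer G, 60 min at 22° C, read hourly up to 4 hours. Duplicate three-fold titrations from 30 μM; EC50 by variable-slope nonlinear regression.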

[5] = system: MDA-MB-231; assay: Cell viability assay (resazurin) in MDA-MB-231; assay type: cell-based; conditions: Homo sapiens, 96 hr exposure, read-out: MDA_MB-231 Cell IC50
Method: as §1

[6] = system: HCT116; assay: Cell viability assay (resazurin) in HCT116; assay type: cell-based; conditions: Homo sapiens, HCT-116; 96 hr exposure
Method: as §1

[7] = system: THP1; assay: Cell viability assay in THP1; assay type: cell-based; conditions: Homo sapiens, THP-1

Row | SMILES | EC50 [1] [µM] | IC50 [2] [µM] | IC50 [3] [µM] | EC50 [4] [µM] | IC50 [5] [µM] | IC50 [6] [µM] | IC50 [7] [µM]
1 | CN(C)C(=O)c1ccc(N2CCN(C3CC4(C3)CN(C(=O)[C@](O)(c3ccccc3)C(F)(F)F)C4)CC2)cc1Cl (single isomer, unassigned) [Compound 1.17] | 10.6 | > 30 | 22.6 | 0.156 | > 30 |  | 
2 | CN(C)C(=O)c1ccc(N2CCN(C3CC4(C3)CN(C(=O)[C@@](O)(c3ccccc3)C(F)(F)F)C4)CC2)cc1Cl (single isomer, unassigned) [Compound 1.18] | 5.96 |  |  | 1.58 |  |  | 
3 | CC(C)[C@](O)(C(=O)N1CCC2(CC1)CN(C1CCN(c3ccc(C(=O)N(C)C)c(Cl)c3)CC1)C2)C(F)(F)F (single isomer, unassigned) [Compound 1.74] | 1.25 |  | > 30 | 0.75 |  |  | 
4 | CN(C)C(=O)c1ccc(N2CCN(C3CC4(C3)CN(S(=O)(=O)c3ccccc3C(F)(F)F)C4)CC2)cc1Cl [Compound 1.5, 2-chloro-N,N-dimethyl-4-(4-(2-(2-(trifluoromethyl)phenylsulfonyl)-2-azaspiro[3.3]heptan-6-yl)piperazin-1-yl)benzamide] | > 30 |  |  | 1.11 |  |  | 
5 | CN(C)C(=O)c1ccc(-c2nnc(C3=CCN(S(=O)(=O)c4ccccc4Cl)CC3)s2)cc1Cl [Compound 1.12, 2-chloro-4-(5-(1-(2-chlorophenylsulfonyl)-1,2,3,6-tetrahydropyridin-4-yl)-1,3,4-thiadiazol-2-yl)-N,N-dimethylbenzamide] | 4.1 | > 30 | 14.6 | 0.211 | 15.3 |  | 
6 | O=C(N1CCC(N2CCN(c3cc(Cl)c4c(=O)[nH]ccc4c3)CC2)CC1)C1(c2ccccc2)CCC1 [Compound 1.29, 8-chloro-6-(4-(1-(1-phenylcyclobutanecarbonyl)piperidin-4-yl)piperazin-1-yl)isoquinolin-1(2H)-one] | 8.63 |  |  | 0.92 |  |  | 
7 | CN(C)C(=O)c1ccc(N[C@H]2CCN(C3CCN(C(=O)[C@](O)(c4ccccc4)C(F)(F)F)CC3)C2)cc1Cl [Compound 1.46, 2-chloro-N,N-dimethyl-4-((S)-1-(1-((R)-3,3,3-trifluoro-2-hydroxy-2-phenylpropanoyl)piperidin-4-yl)pyrrolidin-3-ylamino)benzamide] |  | > 30 |  | > 30 | > 30 | > 30 | > 30
8 | CN(C)C(=O)c1ccc(NC2CCN(C3CCN(C(=O)[C@](O)(c4ccccc4)C(F)(F)F)CC3)CC2)cc1Cl [Compound 1.47, (R)-2-chloro-N,N-dimethyl-4-(1′-(3,3,3-trifluoro-2-hydroxy-2-phenylpropanoyl)-1,4′-bipiperidin-4-ylamino)benzamide] |  | > 30 |  | 2.91 | > 30 | > 30 | > 30
9 | CN(C)C(=O)c1ccc(NC2CN(C3CCN(C(=O)C4(c5ccc(F)cc5)CCC4)CC3)C2)cc1Cl [Compound 1.49, 2-chloro-4-(1-(1-(1-(4-fluorophenyl)cyclobutanecarbonyl)piperidin-4-yl)azetidin-3-ylamino)-N,N-dimethylbenzamide] |  | 15.1 |  | 15.9 | 15 | 17.8 | > 30
10 | CN(C)C(=O)c1ccc(OC2CN(C3CCN(C(=O)[C@](O)(c4ccccc4)C(F)(F)F)CC3)C2)cc1Cl [Compound 1.77, (R)-2-chloro-N,N-dimethyl-4-(1-(1-(3,3,3-trifluoro-2-hydroxy-2-phenylpropanoyl)piperidin-4-yl)azetidin-3-yloxy)benzamide] | 19.5 |  | > 30 | 1.53 |  |  | 
11 | CC1CC(N2CC(Nc3ccc(C(=O)N(C)C)c(Cl)c3)C2)CCN1S(=O)(=O)c1ccccc1Cl (stereo not drawn) [Compound 1.84, 2-chloro-4-(1-(1-(2-chlorophenylsulfonyl)-2-methylpiperidin-4-yl)azetidin-3-ylamino)-N,N-dimethylbenzamide] | 16.1 |  |  | 1.14 |  |  | 
